Tests used:
surinam grass = test: Test B pre/postemergence surinam grass; type: in vivo, Brachiaria decumbens
Summary of the method: (§1)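 Test chemicals in a non-phytotoxic solvent mixture with surfactant were sprayed preemergence onto planted seeds and postemergence onto plants 2 to 18 cm tall (1- to 4-leaf stage). After twelve to sixteen days in a greenhouse, injury was visually rated against untreated controls from 0 (no effect) to 10 (complete control).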

cocklebur = test: Test B pre/postemergence cocklebur; type: in vivo, Xanthium strumarium
Summary of the method: as §1

corn = test: Test B pre/postemergence corn; type: in vivo, Zea mays
Summary of the method: as §1

crabgrass = test: Test B pre/postemergence crabgrass; type: in vivo, Digitaria sanguinalis
Summary of the method: as §1

giant foxtail = test: Test B pre/postemergence giant foxtail; type: in vivo, Setaria faberii
Summary of the method: as §1

morningglory = test: Test B pre/postemergence morningglory; type: in vivo, Ipomoea hederacea
Summary of the method: as §1

pigweed = test: Test B pre/postemergence pigweed; type: in vivo, Amaranthus retroflexus
Summary of the method: as §1

rape = test: Test B pre/postemergence rape; type: in vivo, Brassica napus
Summary of the method: as §1

soybean = test: Test B pre/postemergence soybean; type: in vivo, Glycine max
Summary of the method: as §1

sugar beet = test: Test B pre/postemergence sugar beet; type: in vivo, Beta vulgaris
Summary of the method: as §1

wild oat = test: Test B pre/postemergence wild oat; type: in vivo, Avena fatua
Summary of the method: as §1

purple nutsedge = test: Test B pre/postemergence purple nutsedge; type: in vivo, Cyperus rotundus
Summary of the method: as §1

rice = test: Test B flood test rice; type: in vivo, Oryza sativa
Summary of the method: (§2)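 Plants were grown to the 2-leaf stage before treatment with test chemical, then held in a greenhouse for twelve to sixteen days. Injury was visually rated against untreated controls on a 0–10 scale, where 0 is no effect and 10 is complete control.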

smallflower flatsedge = test: Test B flood test smallflower flatsedge; type: in vivo, Cyperus difformis
Summary of the method: as §2

duck salad = test: Test B flood test duck salad; type: in vivo, Heteranthera limosa
Summary of the method: as §2

bamyardgrass = test: Test B flood test barnyardgrass; type: in vivo, Echinochloa crus-galli
Summary of the method: as §2

[1] = Postemergence, Rate 125 g/ha, scale of 0 to 10 where 0 is no effect and 10 is complete control
[2] = Preemergence, Rate 62 g/ha, scale of 0 to 10 where 0 is no effect and 10 is complete control
[3] = Preemergence, Rate 125 g/ha, 0 is no effect, 10 is complete control
[4] = Preemergence, Rate 250 g/ha, scale 0 to 10, 0 is no effect, 10 is complete control
[5] = Preemergence, Rate 500 g/ha, scale 0 to 10 (0 no effect, 10 complete control)
[6] = Rate 62 g/ha, Postemergence, scale of 0 to 10 where 0 is no effect and 10 is complete control
[7] = Rate 250 g/ha, Postemergence, scale 0 to 10, 0 is no effect, 10 is complete control
[8] = Rate 500 g/ha, Postemergence, scale 0 to 10
[9] = Postemergence (flood test species), Rate 125 g/ha, scale of 0 to 10 where 0 is no effect and 10 is complete control
[10] = Rate 62 g/ha, Postemergence section, flood test species, scale of 0 to 10 where 0 is no effect and 10 is complete control
[11] = Rate 250 g/ha, Postemergence (flood test), scale 0 to 10, 0 is no effect, 10 is complete control
[12] = Rate 500 g/ha, listed under Postemergence (flood test species), scale 0 to 10

## Cc1ccccc1-n1c(=O)on(C(=O)N(c2cccc(F)c2F)C(C)C)c1=O [Compound 171]
Surinam grass; [1]
  B. signalgrass plant response rating: 0
Surinam grass; [2]
  B. signalgrass plant response rating: 0
Surinam grass; [3]
  B. signalgrass plant response rating (0 to 10 scale): 1
Surinam grass; [4]
  B. signalgrass plant response rating: 3
Surinam grass; [5]
  B. signalgrass plant response rating: 5
Surinam grass; [6]
  B. signalgrass plant response rating: 0
Surinam grass; [7]
  Plant response rating, B. signalgrass: 0
Surinam grass; Rate 500 g/ha, Postemergence, scale 0 to 10, 0 no effect, 10 complete control
  B. signalgrass plant response rating: 0
cocklebur; [1]
  Cocklebur plant response rating: 0
cocklebur; [2]
  Cocklebur plant response rating: 0
cocklebur; [3]
  Cocklebur plant response rating (0 to 10 scale): 0
cocklebur; [4]
  Cocklebur plant response rating: 0
cocklebur; [5]
  Cocklebur plant response rating: 0
cocklebur; [6]
  Cocklebur plant response rating: 0
cocklebur; [7]
  Plant response rating, Cocklebur: 3
cocklebur; [8]
  Cocklebur plant response rating: 3
corn; [1]
  Corn plant response rating: 0
corn; [2]
  Corn plant response rating: 0
corn; [3]
  Corn plant response rating (0 to 10 scale): 0
corn; [4]
  Corn plant response rating: 0
corn; [5]
  Corn plant response rating: 0
corn; [6]
  Corn plant response rating: 0
corn; [7]
  Plant response rating, Corn: 0
corn; [8]
  Corn plant response rating: 0
crabgrass; [1]
  Crabgrass plant response rating: 0
crabgrass; [2]
  Crabgrass plant response rating: 2
crabgrass; [3]
  Crabgrass plant response rating (0 to 10 scale): 7
crabgrass; [4]
  Crabgrass plant response rating: 10
crabgrass; [5]
  Crabgrass plant response rating: 10
crabgrass; [6]
  Crabgrass plant response rating: 0
crabgrass; [7]
  Plant response rating, Crabgrass: 2
crabgrass; [8]
  Crabgrass plant response rating: 7
Giant foxtail; [1]
  Giant foxtail plant response rating: 0
Giant foxtail; [2]
  Giant foxtail plant response rating: 5
Giant foxtail; [3]
  Giant foxtail plant response rating (0 to 10 scale): 7
Giant foxtail; [4]
  Giant foxtail plant response rating: 10
Giant foxtail; [5]
  Giant foxtail plant response rating: 10
Giant foxtail; [6]
  Giant foxtail plant response rating: 0
Giant foxtail; [7]
  Plant response rating, Giant foxtail: 0
Giant foxtail; [8]
  Giant foxtail plant response rating: 0
morningglory; [1]
  Morningglory plant response rating: 1
morningglory; [2]
  Morningglory plant response rating: 0
morningglory; [3]
  Morningglory plant response rating (0 to 10 scale): 0
morningglory; [4]
  Morningglory plant response rating: 0
morningglory; [5]
  Morningglory plant response rating: 0
morningglory; [6]
  Morningglory plant response rating: 0
morningglory; [7]
  Plant response rating, Morningglory: 2
morningglory; [8]
  Morningglory plant response rating: 2
pigweed; [1]
  Redroot pigweed plant response rating: 0
pigweed; [2]
  Redroot pigweed plant response rating: 0
pigweed; [3]
  Redroot pigweed plant response rating (0 to 10 scale): 0
pigweed; [4]
  Redroot pigweed plant response rating: 5
pigweed; [5]
  Redroot pigweed plant response rating: 6
pigweed; [6]
  Redroot pigweed plant response rating: 0
pigweed; [7]
  Plant response rating, Redroot pigweed: 0
pigweed; [8]
  Redroot pigweed plant response rating: 5
rape; [1]
  Rape plant response rating: 0
rape; [2]
  Rape plant response rating: 0
rape; [3]
  Rape plant response rating (0 to 10 scale): 0
rape; [5]
  Rape plant response rating: 4
rape; [6]
  Rape plant response rating: 0
rape; [7]
  Plant response rating, Rape: 0
rape; [8]
  Rape plant response rating: 0
soybean; [1]
  Soybean plant response rating: 1
soybean; [2]
  Soybean plant response rating: 0
soybean; [3]
  Soybean plant response rating (0 to 10 scale): 0
soybean; [4]
  Soybean plant response rating: 0
soybean; [5]
  Soybean plant response rating: 0
soybean; [6]
  Soybean plant response rating: 1
soybean; [7]
  Plant response rating, Soybean: 1
soybean; [8]
  Soybean plant response rating: 3
Sugar beet; [1]
  Sugarbeets plant response rating: 0
Sugar beet; [2]
  Sugarbeets plant response rating: 0
Sugar beet; [3]
  Sugarbeets plant response rating (0 to 10 scale): 0
Sugar beet; [4]
  Sugarbeets plant response rating: 0
Sugar beet; [5]
  Sugarbeets plant response rating: 0
Sugar beet; [6]
  Sugarbeets plant response rating: 0
Sugar beet; [7]
  Plant response rating, Sugarbeets: 2
Sugar beet; [8]
  Sugarbeets plant response rating: 2
Wild oat; [2]
  Wild oats plant response rating: 0
Wild oat; [3]
  Wild oats plant response rating (0 to 10 scale): 2
Wild oat; [4]
  Wild oats plant response rating: 4
Wild oat; [5]
  Wild oats plant response rating: 5
Wild oat; [7]
  Plant response rating, Wild oats: 0
Wild oat; [8]
  Wild oats plant response rating: 0
Purple nutsedge; [1]
  Nutsedge plant response rating: 0
Purple nutsedge; [2]
  Nutsedge plant response rating: 0
Purple nutsedge; [3]
  Nutsedge plant response rating (0 to 10 scale): 0
Purple nutsedge; [4]
  Nutsedge plant response rating: 0
Purple nutsedge; [5]
  Nutsedge plant response rating: 0
Purple nutsedge; [6]
  Nutsedge plant response rating: 0
Purple nutsedge; [7]
  Plant response rating, Nutsedge: 0
Purple nutsedge; [8]
  Nutsedge plant response rating: 0
rice; [9]
  Rice plant response rating: 0
rice; [10]
  Rice plant response rating: 0
rice; [11]
  Plant response rating, Rice: 0
rice; [12]
  Rice plant response rating: 0
Smallflower flatsedge; [9]
  S. Flatsedge plant response rating: 0
Smallflower flatsedge; [10]
  S. Flatsedge plant response rating: 0
Smallflower flatsedge; [11]
  Plant response rating, S. Flatsedge: 0
Smallflower flatsedge; [12]
  S. Flatsedge plant response rating: 0
Duck salad; [9]
  Ducksalad plant response rating: 0
Duck salad; [10]
  Ducksalad plant response rating: 0
Duck salad; [11]
  Plant response rating, Ducksalad: 0
Duck salad; [12]
  Ducksalad plant response rating: 0
bamyardgrass; [9]
  Barnyardgrass plant response rating: 0
bamyardgrass; [10]
  Barnyardgrass plant response rating: 0
bamyardgrass; [11]
  Plant response rating, Barnyardgrass: 0
bamyardgrass; [12]
  Barnyardgrass plant response rating: 0
